Measured values reported in the supplement of paper PMC10331698.
± gives the standard deviation of the averaged measurements.

How the values were obtained:
Assay in all cases: level (log10 ratio to DMSO vehicle control); higher = higher biomarker level / cell amount than vehicle control
[1] = compound: C=C(C)C(=O)OCCC(F)(F)C(F)(F)C(F)(F)C(F)(F)C(F)(F)C(F)(F)C(F)(F)C(F)(F)F [8:2 Fluorotelomer methacrylate] (in DMSO)
Protocol: (§1)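 BioMAP Diversity Plus panel of 12 human primary cell co-culture systems (3C, 4H, LPS, SAg, BT, BF4T, BE3C, CASM3C, HDF3CGF, KF3CT, MyoF, Mphg). Compounds were added 1 h before stimulation and left for 24 h (MyoF 48 h; BT 72 h for soluble read-outs or 6 d for IgG). Biomarkers were read by ELISA, cytotoxicity by SRB, PBMC viability and proliferation by Alamar Blue. Each well value was divided by the mean of 8 DMSO control wells on the same plate and log10 transformed; duplicate blinded samples were tested at 4 concentrations.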

[2] = compound: O=C(O)C(F)(F)C(F)(F)C(F)(F)C(F)(F)C(F)(F)C(F)(F)C(F)(F)C(F)(F)F [Perfluorononanoic acid] (in DMSO)
Protocol: as §1

[3] = compound: O=C(O)C(F)(F)C(F)(F)C(F)(F)OC(F)(F)F [Perfluoro(4-methoxybutanoic) acid] (in DMSO)
Protocol: as §1

[4] = compound: O=C(O)C(F)(OC(F)(F)C(F)(F)C(F)(F)F)C(F)(F)F [Ammonium perfluoro-2-methyl-3-oxahexanoate] (in Water)
Protocol: as §1

[5] = compound: O=C(O)C(F)(OC(F)(F)C(F)(OC(F)(F)C(F)(OC(F)(F)C(F)(F)C(F)(F)F)C(F)(F)F)C(F)(F)F)C(F)(F)F [Perfluoro-(2,5,8-trimethyl-3,6,9-trioxadodecanoic)acid] (in DMSO)
Protocol: as §1

[6] = compound: O=S(=O)(O)C(F)(F)C(F)(F)C(F)(F)C(F)(F)C(F)(F)C(F)(F)C(F)(F)F [Perfluoroheptanesulfonic acid] (in DMSO)
Protocol: as §1

[7] = compound: O=S(=O)(O)C(F)(F)C(F)(F)OC(F)(F)C(F)(F)F [Perfluoro(2-ethoxyethane)sulfonic acid] (in DMSO)
Protocol: as §1

Test System	level (log10) ([1]; 6700 nM)	level (log10) ([1]; 20000 nM)	level (log10) ([2]; 6700 nM)	level (log10) ([2]; 20000 nM)	level (log10) ([3]; 6700 nM)	level (log10) ([3]; 20000 nM)	level (log10) ([3]; 60000 nM)	level (log10) ([4]; 6700 nM)	level (log10) ([4]; 20000 nM)	level (log10) ([4]; 60000 nM)	level (log10) ([5]; 1100 nM)	level (log10) ([5]; 3300 nM)	level (log10) ([5]; 10000 nM)	level (log10) ([6]; 1500 nM)	level (log10) ([6]; 4400 nM)	level (log10) ([6]; 13000 nM)	level (log10) ([6]; 40000 nM)	level (log10) ([7]; 6700 nM)	level (log10) ([7]; 20000 nM)	level (log10) ([7]; 60000 nM)
CASM3C:CD87/uPAR	-0.006 ± 0.05	-0.022 ± 0.033	-0.02 ± 0.0071	0.023	-0.0135 ± 0.04	-0.0095 ± 0.0092	-0.0255 ± 0.016	-0.031 ± 0.076	0.0075 ± 0.011	0.014 ± 0.027	0.0175 ± 0.022	0.0015 ± 0.018	0.0265 ± 0.0035	-0.028 ± 0.042	0.0045 ± 0.049	-0.0165 ± 0.049	-0.0555 ± 0.035	0.0025 ± 0.032	0.01 ± 0.024	-0.0165 ± 0.046
CASM3C:CD106/VCAM-1	-0.006 ± 0.0014	-0.0145 ± 0.036	0.013 ± 0.0042	-0.0245 ± 0.1	-0.0045 ± 0.057	-0.0015 ± 0.042	-0.008 ± 0.035	-0.0955 ± 0.061	-0.0645 ± 0.005	-0.083 ± 0.011	0.0125 ± 0.012	-0.003 ± 0.031	-0.0025 ± 0.005	0.0085 ± 0.057	0.0125 ± 0.0035	0.0055 ± 0.05	-0.0355 ± 0.0035	-0.0035 ± 0.023	-0.0165 ± 0.026	0.001 ± 0.018
CASM3C:CD141/Thrombomodulin	-0.0195 ± 0.042	0.041 ± 0.082	0.0145 ± 0.0092	0.0335 ± 0.016	0.001 ± 0.035	0.007 ± 0.035	-0.011 ± 0.044	0.113 ± 0.0057	0.0435 ± 0.11	0.035 ± 0.038	0.0045 ± 0.036	0.018 ± 0.047	0.014 ± 0.027	0.019 ± 0.037	-0.019 ± 0.028	-0.0185 ± 0.022	0.038 ± 0.078	0.005 ± 0.011	-0.015 ± 0.0071	0.023 ± 0.044
CASM3C:CD142/Tissue Factor	-0.023 ± 0.018	-0.0195 ± 0.057	-0.093 ± 0.064	-0.115 ± 0.14	0.0005 ± 0.018	-0.0175 ± 0.011	-0.051 ± 0.018	0.022 ± 0.013	-0.0045 ± 0.028	-0.009 ± 0.089	0.0095 ± 0.018	0.0085 ± 0.011	0.0025 ± 0.015	-0.0305 ± 0.035	-0.0125 ± 0.019	-0.026 ± 0.024	-0.04 ± 0.068	-0.023 ± 0.0085	-0.0335 ± 0.035	0.045 ± 0.067
CASM3C:CXCL8/IL-8	-0.011 ± 0.0057	-0.0055 ± 0.028	0.0075 ± 0.013	0.031 ± 0.033	0.002 ± 0.0099	-0.0065 ± 0.013	0.0165 ± 0.011	0.005 ± 0.0042	0.034 ± 0.024	0.056 ± 0.024	-0.0025 ± 0.021	-0.015 ± 0.025	0.0105 ± 0.0035	0.0015 ± 0.013	-0.005 ± 0.0099	-0.0105 ± 0.005	-0.0005 ± 0.019	-0.0095 ± 0.00071	-0.0055 ± 0.0078	0.0265 ± 0.005
CASM3C:CXCL9/MIG	-0.017 ± 0.011	0.018 ± 0.042	0.014 ± 0.028	0.005 ± 0.057	-0.0025 ± 0.016	-0.0105 ± 0.0078	0.015 ± 0.0028	0.039 ± 0.038	0.05 ± 0.0071	0.0595 ± 0.015	0.0055 ± 0.0021	-0.0065 ± 0.0092	0.0075 ± 0.005	0.012 ± 0.035	-0.008 ± 0.0099	0.0015 ± 0.005	0.037 ± 0.05	-0.0205 ± 0.0064	-0.0105 ± 0.0035	0.0145 ± 0.057
CASM3C:HLA-DR	-0.006 ± 0.027	-0.0195 ± 0.046	-0.0105 ± 0.066	-0.02 ± 0.0028	-0.016 ± 0.014	-0.006 ± 0.023	-0.0095 ± 0.00071	0.0195 ± 0.054	0.01 ± 0.059	0.004 ± 0.0071	0.0045 ± 0.019	-0.004 ± 0.0028	0.0165 ± 0.012	-0.011 ± 0.0028	0.009 ± 0.0085	-0.0255 ± 0.028	-0.009 ± 0.031	0.011 ± 0.0099	0 ± 0.02	-0.005 ± 0.016
CASM3C:IL-6	-0.0315 ± 0.022	0.0105 ± 0.084	-0.016 ± 0.035	-0.016 ± 0.024	-0.0215 ± 0.015	-0.0205 ± 0.016	-0.001 ± 0.031	0.0075 ± 0.005	-0.052 ± 0.042	-0.0375 ± 0.047	-0.016 ± 0.048	-0.0155 ± 0.043	-0.0125 ± 0.018	0.021 ± 0.05	-0.029 ± 0.0014	-0.0305 ± 0.026	0.011 ± 0.088	-0.024 ± 0.0028	-0.041 ± 0.033	-0.0725 ± 0.015
CASM3C:LDLR	-0.0085 ± 0.018	0.0055 ± 0.026	-0.05 ± 0.02	-0.0415 ± 0.011	-0.0135 ± 0.011	-0.0245 ± 0.023	0.0035 ± 0.044	-0.061 ± 0.057	-0.032 ± 0.04	-0.0545 ± 0.021	0.0065 ± 0.011	0.004 ± 0.0014	0.0025 ± 0.021	-0.0275 ± 0.0021	-0.0135 ± 0.00071	-0.0215 ± 0.0092	-0.0165 ± 0.011	-0.006 ± 0.0014	-0.0085 ± 0.00071	0.0005 ± 0.023
CASM3C:M-CSF	-0.0325 ± 0.019	-0.019 ± 0.067	0.045 ± 0.0099	0.0435 ± 0.028	-0.027 ± 0.021	-0.035 ± 0.021	0.029 ± 0.034	-0.049 ± 0.016	-0.0405 ± 0.0092	-0.0405 ± 0.022	-0.0285 ± 0.029	0.0055 ± 0.016	0.002 ± 0.0014	-0.0215 ± 0.0021	-0.0305 ± 0.0035	-0.039 ± 0.028	-0.02 ± 0.047	-0.0075 ± 0.011	0 ± 0.031	0.0615 ± 0.057
CASM3C:PAI-I	0.001 ± 0.0014	0.0065 ± 0.011	0.0015 ± 0.011	-0.008 ± 0.017	-0.0015 ± 0.0021	0.0005 ± 0.0035	0.0095 ± 0.0064	-0.007 ± 0.0085	-0.0005 ± 0.0092	-0.0025 ± 0.013	-0.002 ± 0.0014	-0.0005 ± 0.0035	0.009 ± 0.0099	0.006 ± 0.0057	0.0075 ± 0.0064	0.009 ± 0.0042	0.008 ± 0.0042	0.004 ± 0.0071	0.0015 ± 0.012	0.015 ± 0.011
CASM3C:Proliferation	-0.01 ± 0.017	-0.0245 ± 0.035	0.0505 ± 0.059	0.021 ± 0.052	0.0025 ± 0.076	-0.051 ± 0.047	-0.0245 ± 0.069	-0.07 ± 0.085	-0.095 ± 0.02	-0.104 ± 0.065	0.011 ± 0.0014	-0.008 ± 0.016	-0.018 ± 0.023	0.0285 ± 0.0092	-0.026	-0.028 ± 0.016	-0.034 ± 0.028	-0.0405 ± 0.052	-0.0015 ± 0.018	0.048 ± 0.03
CASM3C:SRB	-0.006 ± 0.0028	-0.0015 ± 0.005	-0.0005 ± 0.0064	0.002	-0.001 ± 0.0014	-0.001 ± 0.0028	-0.0045 ± 0.011	-0.007 ± 0.0057	-0.008 ± 0.0014	-0.0105 ± 0.0064	0.0035 ± 0.005	-0.006 ± 0.0071	0.0005 ± 0.0035	0.004 ± 0.0057	0.0045 ± 0.00071	-0.0075 ± 0.0035	-0.011 ± 0.0014	-0.002 ± 0.0028	-0.003 ± 0.0028	0.001 ± 0.0071
CASM3C:Serum Amyloid A	-0.045 ± 0.0057	-0.02 ± 0.078	-0.014 ± 0.018	-0.012 ± 0.048	-0.0435 ± 0.015	-0.0465 ± 0.0064	-0.0075 ± 0.081	-0.031 ± 0.04	-0.034 ± 0.03	-0.0005 ± 0.049	-0.005 ± 0.014	0.0105 ± 0.036	0.04 ± 0.03	0.03 ± 0.051	-0.027 ± 0.0028	-0.0305 ± 0.032	-0.013 ± 0.048	0.029 ± 0.044	0.133 ± 0.18	0.344 ± 0.22
